In PMC7347136 (PLoS ONE, 2020):

Tests used:
Experiment in all cases: Carna kinase panel screen
Type in all cases: biochemical
Conditions in all cases: read-out: % Inhibition ± SD
[1] = target: T1, ROCK2 (Homo sapiens, UniProt O75116)
T1 construct: purchased Carna Biosciences
Summary of the method: (§1)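 IC50 determined by fitting percentage inhibition from a 10-point dilution series, run at ATP approximating Km, to a four-parameter logistic curve.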

[2] = target: T2, PHKG1 (Homo sapiens, UniProt Q16816)
T2 construct: purchased Carna Biosciences
Summary of the method: as §1

[3] = target: T3, EEF2K (Homo sapiens, UniProt O00418)
T3 construct: purchased Carna Biosciences
Summary of the method: (§2)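 Ten-point dose-response, ATP ≈ Km. % inhibition vs concentration → 4-parameter logistic fit → IC50.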

[4] = target: T4, PHKG2 (Homo sapiens, UniProt P15735)
T4 construct: purchased Carna Biosciences
Summary of the method: as §2

[5] = target: T5, DDR2 (Homo sapiens, UniProt Q16832)
T5 construct: purchased Carna Biosciences
Summary of the method: as §1

[6] = target: T6, NEK2 (Homo sapiens, UniProt P51955)
T6 construct: purchased Carna Biosciences
Summary of the method: as §1

[7] = target: T7, CDC2 (Homo sapiens, UniProt P06493)
T7 construct: purchased Carna Biosciences
Summary of the method: as §1

[8] = target: T8, MARK1 (Homo sapiens, UniProt Q9P0L2)
T8 construct: purchased Carna Biosciences
Summary of the method: as §1

[9] = target: T9, IKKa (Homo sapiens, UniProt O15111)
T9 construct: purchased Carna Biosciences
T9 sequence (O15111 whole entry): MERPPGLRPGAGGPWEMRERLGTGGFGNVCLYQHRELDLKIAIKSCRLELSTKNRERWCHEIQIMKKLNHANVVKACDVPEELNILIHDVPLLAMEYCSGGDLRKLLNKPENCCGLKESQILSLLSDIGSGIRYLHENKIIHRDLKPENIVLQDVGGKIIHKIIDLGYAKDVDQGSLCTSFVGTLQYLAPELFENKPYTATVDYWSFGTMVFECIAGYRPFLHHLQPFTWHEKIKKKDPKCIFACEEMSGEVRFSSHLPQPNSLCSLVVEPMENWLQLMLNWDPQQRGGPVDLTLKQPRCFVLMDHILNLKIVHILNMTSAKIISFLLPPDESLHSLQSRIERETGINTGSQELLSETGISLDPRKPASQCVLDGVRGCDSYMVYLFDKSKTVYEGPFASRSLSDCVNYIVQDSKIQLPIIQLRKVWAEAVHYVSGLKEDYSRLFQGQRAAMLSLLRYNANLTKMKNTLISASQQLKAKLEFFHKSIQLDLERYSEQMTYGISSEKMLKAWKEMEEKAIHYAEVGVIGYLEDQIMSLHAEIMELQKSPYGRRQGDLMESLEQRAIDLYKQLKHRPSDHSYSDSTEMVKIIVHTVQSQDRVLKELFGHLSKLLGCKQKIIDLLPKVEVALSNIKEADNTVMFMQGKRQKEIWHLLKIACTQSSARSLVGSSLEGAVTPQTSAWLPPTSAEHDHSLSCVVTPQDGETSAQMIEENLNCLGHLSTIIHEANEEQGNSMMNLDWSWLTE
Summary of the method: as §1

[10] = target: T10, CHK1 (Homo sapiens, UniProt O14757)
T10 construct: purchased Carna Biosciences
Summary of the method: as §1

[11] = target: T11, AMPKa1 (Homo sapiens, UniProt Q13131)
T11 construct: purchased Carna Biosciences
Summary of the method: as §1

[12] = target: T12, GSK3a (Homo sapiens, UniProt P49840)
T12 construct: purchased Carna Biosciences
T12 sequence (P49840 whole entry): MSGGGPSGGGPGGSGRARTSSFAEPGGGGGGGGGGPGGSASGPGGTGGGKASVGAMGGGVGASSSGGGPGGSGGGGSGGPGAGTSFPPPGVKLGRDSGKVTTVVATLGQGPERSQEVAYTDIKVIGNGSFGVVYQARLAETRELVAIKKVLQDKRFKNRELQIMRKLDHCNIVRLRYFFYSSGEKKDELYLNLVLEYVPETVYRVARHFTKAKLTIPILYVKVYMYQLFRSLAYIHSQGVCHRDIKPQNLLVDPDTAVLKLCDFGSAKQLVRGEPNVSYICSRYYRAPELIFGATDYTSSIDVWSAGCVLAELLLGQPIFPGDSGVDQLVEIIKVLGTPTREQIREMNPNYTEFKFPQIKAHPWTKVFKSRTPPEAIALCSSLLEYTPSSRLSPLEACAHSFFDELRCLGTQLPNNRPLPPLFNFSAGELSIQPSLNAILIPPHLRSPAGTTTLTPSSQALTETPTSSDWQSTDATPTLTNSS
Summary of the method: as §1

[13] = target: T13, CHK2 (Homo sapiens, UniProt O96017)
T13 construct: purchased Carna Biosciences
Summary of the method: as §1

[14] = target: T14, SRM (Homo sapiens, UniProt Q9H3Y6)
T14 construct: purchased Carna Biosciences
Summary of the method: as §1

[15] = target: T15, CGK2 (Homo sapiens, UniProt Q13237)
T15 construct: purchased Carna Biosciences
Summary of the method: as §1

[16] = target: T16, MAP2K2 (Homo sapiens, UniProt P36507)
T16 construct: purchased Carna Biosciences
T16 sequence (P36507 whole entry): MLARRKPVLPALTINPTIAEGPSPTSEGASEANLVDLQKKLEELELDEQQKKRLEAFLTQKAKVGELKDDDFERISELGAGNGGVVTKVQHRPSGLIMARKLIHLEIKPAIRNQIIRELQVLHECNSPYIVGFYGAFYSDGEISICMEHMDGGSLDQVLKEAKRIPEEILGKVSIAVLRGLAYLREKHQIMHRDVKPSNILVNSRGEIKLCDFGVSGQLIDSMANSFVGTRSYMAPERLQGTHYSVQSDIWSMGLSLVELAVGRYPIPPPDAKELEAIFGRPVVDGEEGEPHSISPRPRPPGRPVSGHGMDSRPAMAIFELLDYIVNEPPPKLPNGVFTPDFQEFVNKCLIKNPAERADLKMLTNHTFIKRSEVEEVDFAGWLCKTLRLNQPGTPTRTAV
Summary of the method: as §1

[17] = target: T17, EphA4 (Homo sapiens, UniProt P54764)
T17 construct: purchased Carna Biosciences
Summary of the method: as §1

[18] = target: T18, TIE2 (Homo sapiens, UniProt Q02763)
T18 construct: purchased Carna Biosciences
Summary of the method: as §2

[19] = target: T19, AXL (Homo sapiens, UniProt P30530)
T19 construct: purchased Carna Biosciences
Summary of the method: as §1

[20] = target: T20, MAP3K5 (Homo sapiens, UniProt Q99683)
T20 construct: purchased Carna Biosciences
T20 sequence (Q99683 whole entry): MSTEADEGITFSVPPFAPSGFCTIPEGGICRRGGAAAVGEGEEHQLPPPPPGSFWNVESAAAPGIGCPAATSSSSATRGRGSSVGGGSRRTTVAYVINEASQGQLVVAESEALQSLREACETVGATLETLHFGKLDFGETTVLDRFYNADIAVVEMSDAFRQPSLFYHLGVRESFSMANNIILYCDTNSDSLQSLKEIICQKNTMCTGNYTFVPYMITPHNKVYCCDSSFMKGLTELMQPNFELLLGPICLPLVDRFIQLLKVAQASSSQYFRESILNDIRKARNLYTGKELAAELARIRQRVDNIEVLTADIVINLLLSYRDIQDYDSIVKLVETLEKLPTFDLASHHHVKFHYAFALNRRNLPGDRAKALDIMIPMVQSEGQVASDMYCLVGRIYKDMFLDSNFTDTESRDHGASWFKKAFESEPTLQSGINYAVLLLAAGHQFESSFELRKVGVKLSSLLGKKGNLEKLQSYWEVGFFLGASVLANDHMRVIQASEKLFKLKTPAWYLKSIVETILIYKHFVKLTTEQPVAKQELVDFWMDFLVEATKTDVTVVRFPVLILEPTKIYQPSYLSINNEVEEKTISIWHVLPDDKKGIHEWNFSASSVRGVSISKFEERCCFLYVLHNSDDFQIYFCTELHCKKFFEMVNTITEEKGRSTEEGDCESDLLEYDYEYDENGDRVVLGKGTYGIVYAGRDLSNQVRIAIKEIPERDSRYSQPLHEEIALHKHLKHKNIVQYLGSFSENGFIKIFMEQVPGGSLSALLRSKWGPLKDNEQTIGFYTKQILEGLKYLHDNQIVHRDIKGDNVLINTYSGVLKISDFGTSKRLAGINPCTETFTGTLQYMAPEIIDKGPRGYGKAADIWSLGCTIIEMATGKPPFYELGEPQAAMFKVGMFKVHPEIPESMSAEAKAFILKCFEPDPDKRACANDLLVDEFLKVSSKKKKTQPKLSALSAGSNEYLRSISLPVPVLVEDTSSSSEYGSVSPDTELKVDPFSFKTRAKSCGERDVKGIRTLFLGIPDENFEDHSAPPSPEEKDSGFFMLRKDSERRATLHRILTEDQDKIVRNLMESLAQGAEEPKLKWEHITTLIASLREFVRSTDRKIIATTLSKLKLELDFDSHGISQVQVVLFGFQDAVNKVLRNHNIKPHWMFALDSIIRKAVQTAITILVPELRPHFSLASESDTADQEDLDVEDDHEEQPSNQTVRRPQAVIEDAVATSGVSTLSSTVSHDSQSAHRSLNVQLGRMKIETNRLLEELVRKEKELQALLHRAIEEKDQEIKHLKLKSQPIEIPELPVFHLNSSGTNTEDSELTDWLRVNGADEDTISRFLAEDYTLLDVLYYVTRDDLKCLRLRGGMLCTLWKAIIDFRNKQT
Summary of the method: as §1

[21] = target: T21, SRPK1 (Homo sapiens, UniProt Q96SB4)
T21 construct: purchased Carna Biosciences
Summary of the method: as §1

[22] = target: T22, MARK2 (Homo sapiens, UniProt Q7KZI7)
T22 construct: purchased Carna Biosciences
Summary of the method: as §1

[23] = target: T23, MLK3 (Homo sapiens, UniProt Q16584)
T23 construct: purchased Carna Biosciences
T23 sequence (Q16584 whole entry): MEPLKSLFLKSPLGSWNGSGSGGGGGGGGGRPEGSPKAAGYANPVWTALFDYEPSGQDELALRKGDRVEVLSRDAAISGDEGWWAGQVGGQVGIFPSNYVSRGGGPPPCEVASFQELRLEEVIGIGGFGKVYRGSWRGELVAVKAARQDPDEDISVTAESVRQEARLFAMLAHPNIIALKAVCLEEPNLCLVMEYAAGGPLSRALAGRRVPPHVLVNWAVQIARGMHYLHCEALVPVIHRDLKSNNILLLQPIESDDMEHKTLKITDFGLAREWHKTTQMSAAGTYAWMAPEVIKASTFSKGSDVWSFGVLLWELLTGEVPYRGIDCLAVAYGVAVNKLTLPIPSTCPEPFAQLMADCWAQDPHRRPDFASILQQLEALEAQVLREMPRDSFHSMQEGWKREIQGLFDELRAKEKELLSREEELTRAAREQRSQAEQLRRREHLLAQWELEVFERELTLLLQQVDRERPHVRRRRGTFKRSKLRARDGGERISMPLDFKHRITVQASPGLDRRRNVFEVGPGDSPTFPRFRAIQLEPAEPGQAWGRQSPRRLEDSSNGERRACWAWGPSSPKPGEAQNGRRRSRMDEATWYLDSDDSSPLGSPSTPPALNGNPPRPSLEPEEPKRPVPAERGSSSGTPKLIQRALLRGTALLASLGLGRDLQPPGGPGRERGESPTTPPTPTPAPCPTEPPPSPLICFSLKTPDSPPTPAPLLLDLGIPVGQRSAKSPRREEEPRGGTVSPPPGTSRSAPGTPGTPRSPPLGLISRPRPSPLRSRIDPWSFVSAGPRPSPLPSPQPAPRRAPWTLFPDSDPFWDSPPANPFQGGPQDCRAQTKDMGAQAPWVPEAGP
Summary of the method: as §1

[24] = target: T24, TTK (Homo sapiens, UniProt P33981)
T24 construct: purchased Carna Biosciences
Summary of the method: as §1

[25] = target: T25, CTK (Homo sapiens, UniProt P42679)
T25 construct: purchased Carna Biosciences
Summary of the method: as §1

[26] = target: T26, LTK (Homo sapiens, UniProt P29376)
T26 construct: purchased Carna Biosciences
T26 sequence (P29376 17-864): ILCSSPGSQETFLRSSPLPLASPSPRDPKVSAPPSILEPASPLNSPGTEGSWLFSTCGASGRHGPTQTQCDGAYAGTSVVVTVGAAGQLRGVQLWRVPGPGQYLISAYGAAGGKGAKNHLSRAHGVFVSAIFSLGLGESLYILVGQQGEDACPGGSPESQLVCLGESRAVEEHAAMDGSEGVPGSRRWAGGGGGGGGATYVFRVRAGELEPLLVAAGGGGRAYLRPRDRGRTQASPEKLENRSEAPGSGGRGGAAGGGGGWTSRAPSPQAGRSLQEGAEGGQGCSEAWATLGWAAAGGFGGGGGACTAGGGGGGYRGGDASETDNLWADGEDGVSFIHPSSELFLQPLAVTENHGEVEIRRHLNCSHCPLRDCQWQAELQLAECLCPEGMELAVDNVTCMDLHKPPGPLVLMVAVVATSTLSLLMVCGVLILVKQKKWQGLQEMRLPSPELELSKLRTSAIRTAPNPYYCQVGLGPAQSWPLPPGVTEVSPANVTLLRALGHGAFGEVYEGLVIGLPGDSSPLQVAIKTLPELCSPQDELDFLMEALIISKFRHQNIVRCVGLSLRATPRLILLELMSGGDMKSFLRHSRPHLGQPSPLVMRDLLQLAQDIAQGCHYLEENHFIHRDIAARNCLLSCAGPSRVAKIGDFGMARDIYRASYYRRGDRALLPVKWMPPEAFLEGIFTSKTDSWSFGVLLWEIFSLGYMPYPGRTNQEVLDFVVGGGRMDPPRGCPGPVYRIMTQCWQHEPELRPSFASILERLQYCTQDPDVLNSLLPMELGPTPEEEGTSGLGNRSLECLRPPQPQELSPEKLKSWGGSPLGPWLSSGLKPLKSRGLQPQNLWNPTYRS
Summary of the method: as §1

[27] = target: T27, IKKe (Homo sapiens, UniProt Q14164)
T27 construct: purchased Carna Biosciences
Summary of the method: as §2

[28] = target: T28, PASK (Homo sapiens, UniProt Q96RG2)
T28 construct: purchased Carna Biosciences
Summary of the method: as §1

[29] = target: T29, PDGFRa[T674I] (Homo sapiens, UniProt P16234, T674I)
T29 construct: purchased Carna Biosciences
Summary of the method: as §2

[30] = target: T30, ACK (Homo sapiens, UniProt Q07912)
T30 construct: purchased Carna Biosciences
Summary of the method: as §1

[31] = target: T31, FGFR1 (Homo sapiens, UniProt P11362)
T31 construct: purchased Carna Biosciences
Summary of the method: as §1

[32] = target: T32, PEK (Homo sapiens, UniProt Q9NZJ5)
T32 construct: purchased Carna Biosciences
Summary of the method: as §1

[33] = target: T33, FRK (Homo sapiens, UniProt P42685)
T33 construct: purchased Carna Biosciences
Summary of the method: as §1

[34] = target: T34, IRAK4 (Homo sapiens, UniProt Q9NWZ3)
T34 construct: purchased Carna Biosciences
Summary of the method: as §1

[35] = target: T35, TBK1 (Homo sapiens, UniProt Q9UHD2)
T35 construct: purchased Carna Biosciences
Summary of the method: as §1

[36] = target: T36, ROS (Homo sapiens, UniProt P08922)
T36 construct: purchased Carna Biosciences
Summary of the method: as §1

[37] = target: T37, JNK3 (Homo sapiens, UniProt P53779)
T37 construct: purchased Carna Biosciences
Summary of the method: as §1

[38] = target: T38, TAK1 (Homo sapiens, UniProt O43318)
T38 construct: purchased Carna Biosciences
T38 sequence (O43318 1-303 limits assumed): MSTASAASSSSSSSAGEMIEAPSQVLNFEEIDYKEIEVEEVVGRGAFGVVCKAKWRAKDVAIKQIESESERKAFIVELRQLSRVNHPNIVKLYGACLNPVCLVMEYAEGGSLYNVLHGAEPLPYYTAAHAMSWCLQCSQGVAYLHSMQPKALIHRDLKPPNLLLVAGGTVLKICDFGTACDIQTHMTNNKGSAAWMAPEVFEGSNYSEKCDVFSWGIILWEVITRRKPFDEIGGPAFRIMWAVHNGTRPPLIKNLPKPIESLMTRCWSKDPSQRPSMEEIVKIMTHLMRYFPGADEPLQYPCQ
Summary of the method: as §1

[39] = target: T39, PKCe (Homo sapiens, UniProt Q02156)
T39 construct: purchased Carna Biosciences
Summary of the method: as §1

[40] = target: T40, EphA1 (Homo sapiens, UniProt P21709)
T40 construct: purchased Carna Biosciences
Summary of the method: as §1

[41] = target: T41, DLK (Homo sapiens, UniProt Q12852)
T41 construct: purchased Carna Biosciences
Summary of the method: as §1

[42] = target: T42, NEK7 (Homo sapiens, UniProt Q8TDX7)
T42 construct: purchased Carna Biosciences
Summary of the method: as §1

[43] = target: T43, CDC7 (Homo sapiens, UniProt O00311)
T43 construct: purchased Carna Biosciences
Summary of the method: as §1

[44] = target: T44, RSK3 (Homo sapiens, UniProt Q15349)
T44 construct: purchased Carna Biosciences
Summary of the method: as §1

Compound: CC[C@H](Nc1nc(NCc2cnc(C)cc2C)c2ncn(C(C)C)c2n1)[C@@H](C)O [Fadraciclib, 2-pentanol, 3-[[6-[[(4,6-dimethyl-3-pyridinyl)methyl]amino]-9-(1-methylethyl)-9Hpurin-2-yl]amino]-, (2R,3S)]
- inhibition at 1 µM [1]: 4.2%
- inhibition at 1 µM [2]: -15 ± 0.4%
- inhibition at 1 µM [3]: -10.3 ± 0.2%
- inhibition at 1 µM [4]: -10 ± 0.1%
- inhibition at 1 µM [5]: -9.9 ± 0.1%
- inhibition at 1 µM [6]: -18.1 ± 0.6%
- inhibition at 1 µM [7]: 57.9 ± 1.3%
- inhibition at 1 µM [8]: -9.7 ± 0.1%
- inhibition at 1 µM [9]: 0%
- inhibition at 1 µM [10]: 1.3%
- inhibition at 1 µM [11]: -3.8%
- inhibition at 1 µM [12]: 19.3 ± 1.3%
- inhibition at 1 µM [13]: -7.6 ± 0.1%
- inhibition at 1 µM [14]: 3.5 ± 0.1%
- inhibition at 1 µM [15]: -12.6 ± 0.5%
- inhibition at 1 µM [16]: 4.1%
- inhibition at 1 µM [17]: 1%
- inhibition at 1 µM [18]: 2.9 ± 0.2%
- inhibition at 1 µM [19]: -11.1 ± 0.1%
- inhibition at 1 µM [20]: 5.2 ± 0.2%
- inhibition at 1 µM [21]: 5.9 ± 0.2%
- inhibition at 1 µM [22]: -1.9 ± 0.1%
- inhibition at 1 µM [23]: -4.9 ± 0.4%
- inhibition at 1 µM [24]: 25.3 ± 4.5%
- inhibition at 1 µM [25]: 3.4 ± 0.2%
- inhibition at 1 µM [26]: 6.6 ± 0.1%
- inhibition at 1 µM [27]: 2.5 ± 0.1%
- inhibition at 1 µM [28]: -0.4%
- inhibition at 1 µM [29]: -11.4 ± 0.2%
- inhibition at 1 µM [30]: -0.7%
- inhibition at 1 µM [31]: 7.8%
- inhibition at 1 µM [32]: 0.3%
- inhibition at 1 µM [33]: 3.6%
- inhibition at 1 µM [34]: -10.1 ± 0.1%
- inhibition at 1 µM [35]: -4.8 ± 0.1%
- inhibition at 1 µM [36]: -2 ± 0.1%
- inhibition at 1 µM [37]: 10.6 ± 0.6%
- inhibition at 1 µM [38]: 0.3%
- inhibition at 1 µM [39]: 7.6 ± 0.1%
- inhibition at 1 µM [40]: 5.1%
- inhibition at 1 µM [41]: 0.8%
- inhibition at 1 µM [42]: 0.9%
- inhibition at 1 µM [43]: -5.7%
- inhibition at 1 µM [44]: 7.7%
